# Data as given in the supplement of paper PMC10307832.
# Tests used:
# Assay in all cases: relative viability (nuclei count vs DMSO), 5 days (fraction); higher = more cells survive
# Ibrutinib + Tozasertib = compound: C=CC(=O)N1CCC[C@@H](n2nc(-c3ccc(Oc4ccccc4)cc3)c3c(N)ncnc32)C1 [Ibrutinib] + Cc1cc(Nc2cc(N3CCN(C)CC3)nc(Sc3ccc(NC(=O)C4CC4)cc3)n2)n[nH]1 [Tozasertib] (partner 0.1 µM)
# Method in brief: (§1)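 Lung cancer cell lines in 1536-well plates were dosed by pin tool the day after seeding, either with one drug alone or with a fixed anchor-drug dose plus five library-drug doses (not always all listed) in √10 steps. After 5 days, cells were fixed and their nuclei stained in one step (final 0.05% Triton X-100, 1% formaldehyde, 1 ug/ml Hoechst), then counted on 4× images. Relative viability is the nuclei count in treated wells divided by that in vehicle wells. Values are medians of duplicate plates.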
# BMX-IN-1 + OSI-027 = compound: C=CC(=O)Nc1cc(-n2c(=O)ccc3cnc4ccc(-c5ccc(NS(C)(=O)=O)cc5)cc4c32)ccc1C [BMX-IN-1] + COc1cccc2cc(-c3nc([C@H]4CC[C@H](C(=O)O)CC4)n4ncnc(N)c34)[nH]c12 [OSI-027] (partner 0.5 µM)
# Method in brief: as §1
# BMX-IN-1 + Luminespib = compound: C=CC(=O)Nc1cc(-n2c(=O)ccc3cnc4ccc(-c5ccc(NS(C)(=O)=O)cc5)cc4c32)ccc1C [BMX-IN-1] + CCNC(=O)c1noc(-c2cc(C(C)C)c(O)cc2O)c1-c1ccc(CN2CCOCC2)cc1 [Luminespib] (partner 0.01 µM)
# Method in brief: as §1
# BMX-IN-1 + Tozasertib = compound: C=CC(=O)Nc1cc(-n2c(=O)ccc3cnc4ccc(-c5ccc(NS(C)(=O)=O)cc5)cc4c32)ccc1C [BMX-IN-1] + Cc1cc(Nc2cc(N3CCN(C)CC3)nc(Sc3ccc(NC(=O)C4CC4)cc3)n2)n[nH]1 [Tozasertib] (partner 0.1 µM)
# Method in brief: as §1
Cell Line,relative viability (Ibrutinib + Tozasertib; first compound 0.005 µM),relative viability (Ibrutinib + Tozasertib; first compound 0.01581 µM),relative viability (Ibrutinib + Tozasertib; first compound 0.05 µM),relative viability (Ibrutinib + Tozasertib; first compound 0.1581 µM),relative viability (Ibrutinib + Tozasertib; first compound 0.5 µM),relative viability (BMX-IN-1 + OSI-027; first compound 0.02 µM),relative viability (BMX-IN-1 + OSI-027; first compound 0.2 µM),relative viability (BMX-IN-1 + OSI-027; first compound 0.6325 µM),relative viability (BMX-IN-1 + OSI-027; first compound 2 µM),relative viability (BMX-IN-1 + Luminespib; first compound 0.02 µM),relative viability (BMX-IN-1 + Luminespib; first compound 0.2 µM),relative viability (BMX-IN-1 + Luminespib; first compound 0.6325 µM),relative viability (BMX-IN-1 + Luminespib; first compound 2 µM),relative viability (BMX-IN-1 + Tozasertib; first compound 0.02 µM),relative viability (BMX-IN-1 + Tozasertib; first compound 0.2 µM),relative viability (BMX-IN-1 + Tozasertib; first compound 0.6325 µM),relative viability (BMX-IN-1 + Tozasertib; first compound 2 µM)
SK-LU-1,0.363,0.252,0.399,0.347,0.33,0.345,0.316,0.42,0.298,0.172,0.194,0.189,0.196,0.321,0.344,0.281,0.254
SW 900,–,–,0.663,0.627,0.59,0.547,0.643,0.523,0.764,0.172,0.182,0.165,0.179,0.425,0.682,0.606,0.679
SW 1573,0.189,0.169,0.195,0.174,0.184,0.882,0.778,0.736,0.0649,0.28,0.221,0.225,0.205,0.115,0.175,0.185,0.177
UMC-11,0.194,0.203,0.203,0.203,0.188,0.571,0.578,0.491,0.488,1.17,1.24,1.19,1.03,0.194,0.197,0.244,0.196
